Laboratory results as given in patent publication US6558699B2, “High drug load immediate and modified release oral dosage formulations and processes for their manufacture” (SmithKline Beecham Corporation, priority 1997, dated 2003).

Tests used:
[1] = Hydrate formation during wet granulation (TGA, DSC, XRD); assay type: physicochemical; settings: wet granulation with water
Text: (§1) FIGS. 1(A), 2(A) and 3(A) show, respectively, the thermogravimetric analysis (TGA), the differential scanning calorimetric (DSC) thermogram and the powder X-ray diffraction (XRD) pattern of the free base of anhydrous (E)-α-[2-n-butyl-1-[(4-carboxyphenyl)methyl]-1H-imidazol-5-yl]methylene-2-thiophenepropionic acid.
as §1, with “1B-D, 2B-D” for “1(A), 2(A)”, “3B-D” for “3(A)”, “patterns for the granulations” for “pattern”, “acid with different binders and binder-diluent combinations.” for “acid.”
FIGS. 1B, 2B and 3B show, respectively, the thermogravimetric analysis (TGA), the differential scanning calorimetric (DSC) thermogram and the powder X-ray diffraction (XRD) patterns for the granulations of (E)-α-[2-n-butyl-1-[(4-carboxyphenyl)methyl]-1H-imidazol-5-yl]methylene-2-thiophenepropionic acid with Starch 1551 (96/4 eprosartan free base/Starch 1551). […]

[2] = Drug release from enteric-coated modified release tablets and drug solubility at the initiation pH; settings: pH >4.0 (PVAP), >5.0 (HPMCP), 5.5 (Eudragit)
Text: Tablets of Formulas 1-4 may be optionally provided with an aqueous film coating. Generally, these tablets are coated first with a polymer solution to form a clear film, and then coated with an aqueous polymer solution/suspension to form an opaque, white or colored film. […] In contrast, tablets of Formulas 5-7 are first coated with an aqueous polymer solution to form a clear film (often called seal coat) and then with an aqueous solution/suspension of an enteric polymer such as Eudragit L30D, hydroxypropyl methycellulose acetate phthalate (HPMCP), cellulose acetate phthalate (CAP) or polyvinyl acetate phthalate (PVAP). The weight gains following seal coat and enteric coat are about 3-6% and 4-12% (most preferably 3-4% and 4-6%) respectively. The modified release tablets thus produced release <20% drug in the stomach following the oral administration and rapidly release the drug at higher pHs, depending on the polymer used (for e.g., at a pH >4.0 for PVAP, >5.0 for HPMCP and 5.5 for Eudragit), even though the drug solubility at these initiation pHs is negligible. The water imbibed into the tablets dissolves arginine creating a high pH environment in which Eprosartan dissolves. This high pH also dissolves the film coating, releasing the drug substance to the environment.

[3] = Human clinical studies (tolerability and pharmacokinetics); assay type: in vivo; settings: for safety and tolerability: human clinical studies, doses up to 800 mg per day

Compound | hydrate formation during wet granulation [1] | drug solubility at the initiation pHs [2] | safety and tolerability [3] | bioavailability ([3]; human, in vivo, oral, read-out: mean absolute bioavailability)
CCCCc1ncc(/C=C(\Cc2cccs2)C(=O)O)n1Cc1ccc(C(=O)O)cc1 [Eprosartan, (E)-α-[2-n-Butyl-1-[(4-carboxyphenyl)methyl]-1H-imidazol-5-yl]methylene-2-thiophenepropionic acid] | does not form a hydrate | negligible | safe and well tolerated | 
CCCCc1ncc(/C=C(\Cc2cccs2)C(=O)O)n1Cc1ccc(C(=O)O)cc1.CS(=O)(=O)O [(E)-α-[2-n-Butyl-1-[(4-carboxyphenyl)-methyl]-1H-imidazol-5-yl]methylene-2-thiophenepropionic acid monomethanesulfonate] | forms a dihydrate |  | safe and well tolerated | ~13%
